According to article PMC5620609 (Pharmaceuticals, 2017):
Where two headings read alike, the source gives them in different places.

Experiments:
SK-OV-3 = assay: NCI 60 cell line panel: SK-OV-3; assay type: cell-based, human; settings: Ovarian cancer, TP53 null/mutant
Description: (§1) Details of the NCI 60 One Dose Screen are well known and available online.

786-0 = assay: NCI 60 cell line panel: 786-0; assay type: cell-based, human; settings: Renal cancer, TP53 null/mutant
Description: as §1

in vivo = settings: nude, mouse, iv
Protocol: (§5) Three mice were placed in a dose group on the first day of treatment (Day 1). […] Animals were observed daily for mortality and moribundity. Body weights were measured daily starting on day 1.

SR = assay: NCI 60 cell line panel: SR; assay type: cell-based, human; settings: Leukemia, TP53 wild type
Description: as §1

UO-31 = assay: NCI 60 cell line panel: UO-31; assay type: cell-based, human; settings: Renal cancer, TP53 wild type
Description: as §1

SK-MEL-28 = assay: NCI 60 cell line panel: SK-MEL-28; assay type: cell-based, human; settings: Melanoma, TP53 null/mutant
Description: as §1

OVCAR-3 = assay: NCI 60 cell line panel: OVCAR-3; assay type: cell-based, human; settings: Ovarian cancer, TP53 null/mutant
Description: as §1

OVCAR-8 = assay: NCI 60 cell line panel: OVCAR-8; assay type: cell-based, human; settings: Ovarian cancer, TP53 null/mutant
Description: as §1

[1] = nude mice; same schedule
Protocol: as §5

MOLT-4 = assay: NCI 60 cell line panel: MOLT-4; assay type: cell-based, human; settings: Leukemia, TP53 null/mutant
Description: as §1

[2] = tested on: LoVo colon cancer (TP53 WT) xenograft; assay type: in vivo
Protocol: (§2) Drugs were administered IV for 3 consecutive days a week for 3 weeks. HL-60 is a human leukemia cell line (TP53 null) that is part of the NCI 60 cell line panel and can be grown in nude mice.
(§3) First, 10^7 tumor cells from culture in Matrigel™ of HL-60 human leukemia or LoVo colon cancer were implanted subcutaneously in the flank of 1.75-fold the number of NCr-nu/nu mice required for the study. Study initiation began when the required number of mice had tumors of approximately: • 100 to 250 mm^3 (target group mean tumor volume of approximately 175 mm^3) for the first set of studies. • 14 to 63 mm^3 (target group mean tumor weight of approximately 30 mm^3) for the second set of studies.
(§4) Mice with tumors in the proper volume range were arbitrarily assigned to groups. Mice received test article on 3 consecutive days per week for 3 weeks. Mice were observed daily for mortality and moribundity with weights and the tumor measurements taken twice weekly. Tumor volume was determined using the formula for an ellipsoid sphere: Length × Width^2/2 = Volume (mm^3). The experiments were scheduled to last for 60 days from the day of tumor implant. Any animal whose weight decreased more than 30% from the weight on the first day of treatment or whose tumor reached 4000 mm^3 in volume, ulcerated or sloughed off, or was moribund was euthanized prior to study termination.

[3] = tested on: HL-60 human leukemia (TP53 null) xenograft; assay type: in vivo
Protocol: as §2, §3, §4

MALME-3M = assay: NCI 60 cell line panel: MALME-3M; assay type: cell-based, human; settings: Melanoma, TP53 wild type
Description: as §1

SW-620 = assay: NCI 60 cell line panel: SW-620; assay type: cell-based, human; settings: Colon cancer, TP53 null/mutant
Description: as §1

RNR = target: T1, RNR (Homo sapiens, UniProt P23921); assay: RNR inhibition whole cell assay (HPLC of nucleotides from HeLa cell extracts); assay type: cell-based; settings: 50 µM, 16 h
T1 construct: endogenous in cells; host or cells: HeLa
T1 sequence (P23921 1-792): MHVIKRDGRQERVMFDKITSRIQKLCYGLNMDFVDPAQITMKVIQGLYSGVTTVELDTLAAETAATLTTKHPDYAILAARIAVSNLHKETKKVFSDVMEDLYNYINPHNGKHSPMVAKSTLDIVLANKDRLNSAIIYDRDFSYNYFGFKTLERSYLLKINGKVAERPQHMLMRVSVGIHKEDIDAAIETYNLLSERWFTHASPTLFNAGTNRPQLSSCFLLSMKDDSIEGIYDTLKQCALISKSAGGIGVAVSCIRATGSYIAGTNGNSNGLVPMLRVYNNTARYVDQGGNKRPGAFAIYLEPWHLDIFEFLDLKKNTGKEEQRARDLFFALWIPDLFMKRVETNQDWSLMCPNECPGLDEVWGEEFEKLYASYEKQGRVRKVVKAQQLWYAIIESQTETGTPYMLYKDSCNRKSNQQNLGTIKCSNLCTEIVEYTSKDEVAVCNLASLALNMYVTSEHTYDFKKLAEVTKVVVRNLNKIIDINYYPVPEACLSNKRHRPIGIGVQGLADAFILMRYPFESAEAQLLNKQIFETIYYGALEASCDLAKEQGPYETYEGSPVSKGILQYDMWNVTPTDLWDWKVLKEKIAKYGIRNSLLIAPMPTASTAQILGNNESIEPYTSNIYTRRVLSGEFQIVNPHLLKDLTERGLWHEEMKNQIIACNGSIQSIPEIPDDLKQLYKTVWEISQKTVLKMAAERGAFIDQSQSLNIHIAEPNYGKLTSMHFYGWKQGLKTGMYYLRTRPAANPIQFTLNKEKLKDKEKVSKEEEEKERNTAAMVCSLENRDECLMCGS
T1 sequence (P31350 1-389 partner): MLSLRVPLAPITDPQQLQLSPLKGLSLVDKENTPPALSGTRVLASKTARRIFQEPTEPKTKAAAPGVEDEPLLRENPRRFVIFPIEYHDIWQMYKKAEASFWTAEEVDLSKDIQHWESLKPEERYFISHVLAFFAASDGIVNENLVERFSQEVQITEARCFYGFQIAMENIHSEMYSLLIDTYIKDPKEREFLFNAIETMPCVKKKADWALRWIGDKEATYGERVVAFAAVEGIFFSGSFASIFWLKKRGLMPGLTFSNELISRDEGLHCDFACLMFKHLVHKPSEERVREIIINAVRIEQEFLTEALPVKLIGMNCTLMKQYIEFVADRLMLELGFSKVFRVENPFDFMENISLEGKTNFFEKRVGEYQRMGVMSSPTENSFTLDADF
Description: Gemcitabine was used as a positive control.
The method used to extract and quantitate nucleotides followed previously reported procedures.

## Nc1ncn([C@@H]2O[C@H](CO)[C@@H](O)C2(F)F)c(=O)n1 [NUC013, 5-aza-2′,2′-difluroro deoxycytidine]
SK-OV-3
  Growth (%) at 10 µM: 71.09%
786-0
  Growth (%) at 10 µM: 26.29%
In vivo
  MTD at 3 weeks: > 120 mg/kg
SR
  Growth (%) at 10 µM: 14.99%
UO-31
  Growth (%) at 10 µM: 39.00%
SK-MEL-28
  Growth (%) at 10 µM: 78.46%
OVCAR-3
  Growth (%) at 10 µM: 70.56%
OVCAR-8
  Growth (%) at 10 µM: 49.95%
[1]
  difference in MTD versus decitabine: greater than 24 fold
MOLT-4
  Growth (%) at 10 µM: 35.63%
[2]; LoVo first study, NUC013 5.8 mg/kg IV
  median survival (MS): 60 days
[2]; LoVo first study, NUC013 equimolar dose (5.8 mg/kg) IV, study day 27
  mean tumor volume lower compared to controls: 24.3%
[2]; LoVo second study, NUC013 20 mg/kg IV
  median survival (MS): undefined
[2]; LoVo second study, NUC013 20 mg/kg IV, study day 30
  mean tumor volume lower compared to controls: 50.9%
[2]; LoVo second study, NUC013 40 mg/kg IV
  median survival (MS): undefined
[2]; LoVo second study, NUC013 40 mg/kg IV, study day 30
  mean tumor volume lower compared to controls: 53.7%
[3]; HL-60 first study, NUC013 5.8 mg/kg IV, saline MS = 25 days
  median survival (MS): 28.5 days
[3]; HL-60 first study, NUC013 equimolar dose (5.8 mg/kg) IV
  mice died or euthanized for moribundity (out of 10): none
[3]; HL-60 second study, NUC013 20 mg/kg IV, saline MS = 26.5 days
  median survival (MS): 32 days
[3]; HL-60 second study, NUC013 20 mg/kg IV, study days 21 and 25
  tumor volume lower than saline control (maximum): 47.8%
MALME-3M
  Growth (%) at 10 µM: 67.90%
SW-620
  Growth (%) at 10 µM: 51.21%
RNR
  ADP concentration: 13,845
  ATP concentration: 21,335
  CTP concentration: 1279
  GTP concentration: 2006
  UTP concentration: 4070
  dATP, peak area: 10.2 AU
  dGDP, peak area: 5.6 AU
  dTDP, peak area: 18.65 AU
  dUTP, peak area: 8.8 AU
